Test [1] relates to Activin receptor-like kinase. The conditions noted are these: Table I, cited from earlier work; for Function: reported function in words; for Target: target profile in words.
Test [2] relates to SMAD phosphorylation in CD4+ T cells. In words: Western blot analysis of SMAD phosphorylation in CD4+ T cells. In kind it is cell-based. As to the method: Since Activins have been reported to promote SMAD signaling in non-T cells (14), it was tested whether Activins signaling in T cells could have a similar effect. SMAD activity was assessed by western blot analysis of SMAD phosphorylation.

The test system of the next test is naive CD4+ T cells. The test is described as follows: Foxp3 induction / Treg generation from naive CD4+ T cells. In kind it is cell-based. As to conditions: for Foxp3 induction (Foxp3+ cells): single agent, TGF-β at suboptimal concentration, Activin A in the absence of TGF-β. The text has this: Since […] mediated events are important during the up-regulation of Foxp3 and the generation of Tregs from naive CD4+ T cell precursors, it was investigated whether Activin A can drive the process. Without TGF-β, as expected, Foxp3 induction was minimal.

Test [3] has as its system ALK1, ALK2, BMPR1A, ALK4, TGFBR1, BMPR1B, and ALK7. The conditions noted are these: in words; cited from earlier work.
Test [4] has as its system ALK1, ALK2, ALK3 and ALK6. As to conditions: in words; cited from earlier work.
Where [5] appears, read: single agent, Activin A 5 or 10 ng/ml, TGF-β 0.5 or 2 ng/ml.

The text below walks through data of US20250154266A1, “ACTIVIN SIGNALING ACTIVITY” (The Johns Hopkins University, priority 2022, published 2025).

With `Cc1cccc(-c2[nH]c(C(C)(C)C)nc2-c2ccc3nccnc3c2)n1` [SB-525334], in test [1], the Function result is “SB-525334 has been demonstrated to block phosphorylation and Smad2/3 nuclear translocation, and inhibits renal fibrosis by reducing procollagen and PAI-1 expression”; the Target entry was “ALK4, 5, 7”.

On to “TGF-β: cytokine, inducer of Foxp3 expression and SMAD signaling”, for which, in test [2] (setting [5]), the “SMAD phosphorylation (phospho-SMAD)” value is reported as “induced SMAD phosphorylation”. Further, in the test with naive CD4+ T cells, the “Foxp3 induction (Foxp3+ cells)” value is “modest up-regulation of Foxp3”.

Take `c1ccc(-c2cc(-c3c[nH]nc3-c3ccccn3)ccn2)cc1` [GW-6604]: in test [1], the Function entry is “GW-6604 can prevent matrix deposition and promote hepatocyte regeneration as anti-cancer drug development”; the Target entry is “ALK4, 5, 7”.

`Fc1ccc(Cl)cc1-c1nc(Nc2ccncc2)c2nccnc2n1` [SD-208]: in test [1], the Function result was “SD-208 inhibits growth and invasiveness and enhances immunogenicity of murine and human glioma cells”; the Target result is listed as “ALK4, 5, 7”.

Turning to `Cc1cccc(-c2[nH]c(C(C)(C)C)nc2-c2ccc3c(c2)OCO3)n1` [SB-505124], in test [1], the Target entry is listed as “ALK4, 5, 7”.

Turning to `c1ccc(-c2nc3c(c(-n4ccc5cnccc54)n2)CCC3)nc1` [AZ12601011], the targets result in test [3] is “targets ALK4 and ALK7 as well as TGFBR1”.

`Cc1cccc(-c2nn3c(c2-c2ccnc4ccc(C(N)=O)cc24)CCC3)n1` (atropisomer, axis not shown) [LY-2157299]: in test [1], the Function entry is “LY-2157299 is now under phase II clinical studies of its anti- carcinoma activities against glioblastoma and hepatocellular carcinoma, and has also been reported that it inhibits the tumor growth in human lung anaplastic carcinoma cells and breast carcinoma cells”; the Target entry was “ALK4, 5, 7”.

On to `Cc1cccc(-c2nn(C(=S)Nc3ccccc3)cc2-c2ccnc3ccccc23)n1` [Clone A-83-01, 3-(6-Methylpyridin-2-yl)-N-phenyl-4-(quinolin-4-yl)-1H-pyrazole-1-carbothioamide], for which, in test [4], the “inhibition of ALK1, ALK2, ALK3 and ALK6” value is “weak inhibitor”. In test [1], the Function result is “A-83-01 can inhibit the activities of ALK4, 5 and 7. For other ALK receptors such as ALK1, 2, 3 and 6, A-83-01 showed weak inhibition. A-83- 01 was proved to reduce EMT”; the Target result is “Selective inhibitor for ALK4, 5 and 7, and weak effect on ALK1, 2, 3 and 6”.

B1: Activin A: dimeric member of the TGF-β Superfamily; two Activin βA subunits (protein, UniProt P08476 311-426, looked up)
Inhibin beta A chain: GLECDGKVNICCKKQFFVSFKDIGWNDWIIAPSGYHANYCEGECPSHIAGTSGSSLSFHSTVINHYRMRGHSPFANLKSCCVPTKLRPMSMLYYDDGQNIIKKDIQNMIVEECGCS
modifications: homodimer
With B1, the “SMAD phosphorylation (phospho-SMAD)” value is “even further activation of the SMAD signaling pathway” in test [2] (combined Activin A and TGF-β treatment); “elevation of phospho-SMAD” in test [2] (setting [5]). Further, the “Foxp3+ T cell induction” value in the test on naive CD4+ T cells (combined treatment with Activin and TGF-β) is on record as “synergistic promotion of Foxp3+ T cell induction”. Besides, the “Foxp3 induction (Foxp3+ cells)” value in the test on naive CD4+ T cells is given as “comparable population of Foxp3+ cells”.
